Like-named read-outs stand apart in the source and are kept apart here.
Assays:
HRP [1] = target: T1, HRP (Armoracia rusticana, UniProt P00433); settings: for effect on assay sensitivity: both substrates (TMBlue, TMBM); for 50 μM azide (mA) / 100 μM azide (mA) / 500 μM Azide (mA): serum
Procedure: (§1) SLF5 glass fiber discs, 6.4 mm diameter (Whatman, Inc.) were sensitized with 13 μL of 1 mg/mL rabbit anti-heartworm antibody containing 0.7% sodium bicarbonate, 2% sucrose, and 30 μg/mL FDC Blue 1 dye. Heartworm antibody can be produced from heartworm antigen prepared by disrupting a parasitic worm in an aqueous buffer solution, centrifuging to remove insoluble and particulate components, adding of trichloroacetic acid to a concentration of 15% w/v, centrifuging to remove insoluble components, dialyzing against an aqueous buffer solution and lyophilizing. This antigen preparation is used to produce antibodies in mammals using standard methods (see, e.g., Harlow, E. and D. Lane, 1988, “Antibodies: A Laboratory manual”, Cold Spring Harbor Laboratory, Cod Spring Harbor, N.Y., USA, ISBN 0-87969-314-2 pp 92-286).
(§2) The discs were washed with buffer containing, per liter, 25 mmol of 3-(N-morpholino)-2-hydroxypropane sulfonic acid MOPSO, 100 mmol of NaCl, 1 g of Brij® 35 and 1 g of tetrasodium EDTA, pH 7.4. Two 15 μL drops of a mixture of 100 μL of whole canine blood containing 950 eosinophils per μL (normal range: 100-1500 eosinophils per μL), 0.5%-25% v/v of heartworm extract in fetal bovine serum and 25 μL of 100 μg/mL of chicken anti-heartworm HRP-conjugated antibody was added to the glass fiber disc and allowed to incubate for 5 minutes at 23C. The discs were washed with a buffered bland protein solution containing 1% Triton X-100 and transferred to polystyrene microwells.
(§3) A peroxidase substrate containing 100 μmol per liter of sodium azide, was added to the discs and allowed to incubate for 10 minutes, after which time the amount of blue color produced was measured by bichromatic absorbance at 650 nm-562 nm, compensating the background contribution from the glass fiber matrix. Duplicate discs were also processed in an identical manner except these were incubated instead with the peroxidase substrate but lacking in azide.
The TMBlue® substrate was incubated with the glass fiber discs for 3 minutes and TMBM substrate was incubated for 15 minutes until bichromatic measurement at 650 mn-562 nm.

[2] = even down to pH 3; cited from earlier work
[3] = Procedure: Above pH 6 the activity of some peroxidase substrates declines. […] Incubation times longer than 30 minutes have not been very useful in peroxidase-based analysis due to substrate evaporation and gradual inactivation of peroxidase by peroxide, which occurs naturally after a limited number of catalytic cycles.
[4] = system: endogenous canine peroxidase; settings: 100 μmol per liter sodium azide, whole canine blood, 10 minutes
Procedure: as §1, §2, §3

EPO = EPO (Homo sapiens, UniProt P11678)
Procedure: (§4) Assays were run to determine the selectivity of azide for interference from EPO, MPO and hemoglobin. Activities were measured in solution using a peroxidase substrate consisting of, per liter, 1.4 mmol of TMB, 0.3 mmol of hydrogen peroxide, 20 mmol of sodium chloride, 30 mg of Triton X-100, and 100 g of sucrose. HRP was a conjugate of chicken antibody (used in Example 1). MPO and EPO were essentially homogeneous commercial preparations isolated from human leukocytes. Hemoglobin (Hgb) was obtained as a Triton X-100 lysate of feline erythrocytes.

HRP [5] = target: T1, HRP
Procedure: as §4

MPO = MPO (Homo sapiens, UniProt P05164)
Procedure: as §4

Hemoglobin (Hgb) = Hemoglobin (Hgb) (Felis catus, UniProt P07405+P07412)
Procedure: as §4

[6] = TMBM substrate, 15 minutes, heartworm antigen 0%
[7] = TMBM substrate, 15 minutes, heartworm antigen 5%
[8] = TMBM substrate, 15 minutes, heartworm antigen 10%
[9] = TMBM substrate, 15 minutes, heartworm antigen 25%
[10] = TMBM substrate, 15 minutes, heartworm antigen 50%
[11] = TMBM substrate, 15 minutes, heartworm antigen 100%
[12] = TMBlue substrate, 3 minutes, heartworm antigen 0%
[13] = TMBlue substrate, 3 minutes, heartworm antigen 5%
[14] = TMBlue substrate, 3 minutes, heartworm antigen 10%
[15] = TMBlue substrate, 3 minutes, heartworm antigen 25%
[16] = TMBlue substrate, 3 minutes, heartworm antigen 50%
[17] = TMBlue substrate, 3 minutes, heartworm antigen 100%

T1 sequence (P00433 31-338): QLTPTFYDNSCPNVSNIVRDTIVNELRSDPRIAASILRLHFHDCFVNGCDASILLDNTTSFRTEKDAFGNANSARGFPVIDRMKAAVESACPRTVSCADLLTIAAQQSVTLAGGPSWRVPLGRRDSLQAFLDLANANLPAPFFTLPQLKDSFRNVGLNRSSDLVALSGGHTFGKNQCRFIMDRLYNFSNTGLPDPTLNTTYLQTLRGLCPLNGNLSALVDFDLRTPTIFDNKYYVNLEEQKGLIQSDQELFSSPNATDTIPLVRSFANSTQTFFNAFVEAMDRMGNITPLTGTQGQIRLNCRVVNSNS
Sequence of EPO (P11678 251-715 limits assumed): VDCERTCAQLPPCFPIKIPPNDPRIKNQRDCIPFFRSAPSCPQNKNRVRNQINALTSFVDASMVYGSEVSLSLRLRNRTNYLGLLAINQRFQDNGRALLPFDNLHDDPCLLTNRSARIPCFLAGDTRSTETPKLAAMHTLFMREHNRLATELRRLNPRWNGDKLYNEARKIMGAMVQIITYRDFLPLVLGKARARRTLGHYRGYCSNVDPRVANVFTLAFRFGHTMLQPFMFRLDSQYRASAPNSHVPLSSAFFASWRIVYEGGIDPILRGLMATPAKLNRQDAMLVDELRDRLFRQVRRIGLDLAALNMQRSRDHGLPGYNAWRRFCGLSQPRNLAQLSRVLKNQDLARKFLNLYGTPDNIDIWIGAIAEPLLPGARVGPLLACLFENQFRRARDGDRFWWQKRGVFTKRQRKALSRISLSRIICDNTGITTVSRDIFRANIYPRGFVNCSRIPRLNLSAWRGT
Sequence of EPO (P11678 140-250 limits assumed): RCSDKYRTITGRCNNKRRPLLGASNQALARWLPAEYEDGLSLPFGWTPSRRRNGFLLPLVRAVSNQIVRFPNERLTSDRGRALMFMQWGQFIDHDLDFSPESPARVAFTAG
Sequence of Hemoglobin (Hgb) (P07405 whole entry): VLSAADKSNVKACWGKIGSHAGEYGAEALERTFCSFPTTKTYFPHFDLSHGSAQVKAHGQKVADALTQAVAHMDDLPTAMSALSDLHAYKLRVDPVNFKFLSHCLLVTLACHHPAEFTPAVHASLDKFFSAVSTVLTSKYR
Sequence of Hemoglobin (Hgb) (P07412 whole entry): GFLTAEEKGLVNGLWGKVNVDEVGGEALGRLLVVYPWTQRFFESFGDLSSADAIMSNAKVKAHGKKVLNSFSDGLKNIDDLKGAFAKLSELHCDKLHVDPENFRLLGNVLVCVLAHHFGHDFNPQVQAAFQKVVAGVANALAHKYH
Sequence of MPO (P05164 279-745 limits assumed): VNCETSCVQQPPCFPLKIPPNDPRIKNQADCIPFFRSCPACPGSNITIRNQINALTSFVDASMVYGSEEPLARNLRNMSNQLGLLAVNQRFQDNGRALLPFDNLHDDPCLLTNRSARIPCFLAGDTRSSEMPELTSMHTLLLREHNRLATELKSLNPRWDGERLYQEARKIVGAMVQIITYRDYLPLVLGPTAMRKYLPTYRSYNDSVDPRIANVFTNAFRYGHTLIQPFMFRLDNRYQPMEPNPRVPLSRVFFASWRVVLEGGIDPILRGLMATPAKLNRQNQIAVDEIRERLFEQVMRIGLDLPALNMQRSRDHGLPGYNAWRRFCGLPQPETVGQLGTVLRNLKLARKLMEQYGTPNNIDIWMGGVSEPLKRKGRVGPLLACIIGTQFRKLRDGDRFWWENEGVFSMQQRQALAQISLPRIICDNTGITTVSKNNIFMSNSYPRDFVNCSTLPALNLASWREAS
Sequence of MPO (P05164 165-273 limits assumed): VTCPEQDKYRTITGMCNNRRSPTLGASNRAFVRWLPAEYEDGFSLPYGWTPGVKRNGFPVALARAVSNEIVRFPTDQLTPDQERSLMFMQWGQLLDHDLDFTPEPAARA

## [N-]=[N+]=[N-].[Na+] [azide, sodium azide]
HRP [1]; 500 μM azide
  effect on assay sensitivity: the decrease in sensitivity is not severe
HRP [1]; [6]
  50 μM azide (mA): 46 mA
  100 μM azide (mA): 73 mA
HRP [1]; [7]
  50 μM azide (mA): 138 mA
  100 μM azide (mA): 123 mA
HRP [1]; [8]
  50 μM azide (mA): 196 mA
  100 μM azide (mA): 197 mA
HRP [1]; [9]
  50 μM azide (mA): 264 mA
  100 μM azide (mA): 324 mA
HRP [1]; [10]
  50 μM azide (mA): 535 mA
  100 μM azide (mA): 511 mA
HRP [1]; [11]
  50 μM azide (mA): 776 mA
  100 μM azide (mA): 800 mA
HRP [1]; TMBM substrate, 15 minutes, 500 μM azide, heartworm antigen 0%
  500 μM Azide (mA): 37 mA
HRP [1]; TMBM substrate, 15 minutes, 500 μM azide, heartworm antigen 5%
  500 μM Azide (mA): 70 mA
HRP [1]; TMBM substrate, 15 minutes, 500 μM azide, heartworm antigen 10%
  500 μM Azide (mA): 112 mA
HRP [1]; TMBM substrate, 15 minutes, 500 μM azide, heartworm antigen 25%
  500 μM Azide (mA): 173 mA
HRP [1]; TMBM substrate, 15 minutes, 500 μM azide, heartworm antigen 50%
  500 μM Azide (mA): 363 mA
HRP [1]; TMBM substrate, 15 minutes, 500 μM azide, heartworm antigen 100%
  500 μM Azide (mA): 491 mA
HRP [1]; [12]
  50 μM azide (mA): 22 mA
  100 μM azide (mA): 31 mA
HRP [1]; [13]
  50 μM azide (mA): 64 mA
  100 μM azide (mA): 110 mA
HRP [1]; [14]
  50 μM azide (mA): 119 mA
  100 μM azide (mA): 150 mA
HRP [1]; [15]
  50 μM azide (mA): 270 mA
  100 μM azide (mA): 395 mA
HRP [1]; [16]
  50 μM azide (mA): 408 mA
  100 μM azide (mA): 628 mA
HRP [1]; [17]
  50 μM azide (mA): 646 mA
  100 μM azide (mA): 1046 mA
HRP [1]; TMBlue substrate, 3 minutes, 500 μM azide, heartworm antigen 0%
  500 μM Azide (mA): 21 mA
HRP [1]; TMBlue substrate, 3 minutes, 500 μM azide, heartworm antigen 5%
  500 μM Azide (mA): 73 mA
HRP [1]; TMBlue substrate, 3 minutes, 500 μM azide, heartworm antigen 10%
  500 μM Azide (mA): 121 mA
HRP [1]; TMBlue substrate, 3 minutes, 500 μM azide, heartworm antigen 25%
  500 μM Azide (mA): 265 mA
HRP [1]; TMBlue substrate, 3 minutes, 500 μM azide, heartworm antigen 50%
  500 μM Azide (mA): 462 mA
HRP [1]; TMBlue substrate, 3 minutes, 500 μM azide, heartworm antigen 100%
  500 μM Azide (mA): 734 mA
HRP [1]; up to 100 μM azide
  effect on assay sensitivity: does not produce a significant diminution of assay sensitivity
[2]
  loss of azide from closed containers: no azide is lost
[3]; microwell, 100 μL of 5 mM azide in succinate buffer, below pH 4.5, less than a half hour
  fraction of azide that evaporates: One-half to two-thirds
[3]; microwell, 100 μL of 5 mM azide in succinate buffer, pH 5.0
  fraction of azide lost: one-third
[3]; pH 5.5 and above, over a half hour
  loss of azide: no significant loss
[4]; antigen 0%
  azide added mA650-562: 118 mA
[4]; antigen 0.5%
  azide added mA650-562: 97 mA
[4]; antigen 1%
  azide added mA650-562: 123 mA
[4]; antigen 2.5%
  azide added mA650-562: 147 mA
[4]; antigen 5%
  azide added mA650-562: 149 mA
[4]; antigen 10%
  azide added mA650-562: 179 mA
[4]; antigen 25%
  azide added mA650-562: 305 mA
EPO; 3 μM azide
  % of control activity (without azide), EPO: 13.4%
EPO; 30 μM azide
  % of control activity (without azide), EPO: 0.7%
HRP [5]; 3 μM azide
  % of control activity (without azide), HRP: 101%
HRP [5]; 30 μM azide
  % of control activity (without azide), HRP: 83.5%
MPO; 3 μM azide
  % of control activity (without azide), MPO: 63.1%
MPO; 30 μM azide
  % of control activity (without azide), MPO: 15.5%
Hemoglobin (Hgb); 3 μM azide
  % of control activity (without azide), Hgb: 99.7%
Hemoglobin (Hgb); 30 μM azide
  % of control activity (without azide), Hgb: 26.4%
